Assay [1] deals with T1, amyloid plaque (AB) in 5xFAD mouse brain slices (Homo sapiens, UniProt P05067).
T1 construct: produces elevated amyloid beta levels in the brain; from tissue; host or cells: brain of 5xFAD transgenic mice (400 µm coronal slices)
The experiment in a line: T2/T2*-weighted MRI of coronal brain slices labeled in vitro with spin-labeled compound. As to conditions: 5xFAD brain slices/specimens incubated in vitro with compound. As for the experimental part: MR images of coronal brain slices (400 μm thick) were obtained from a transgenic AD mouse model (5xFAD) with and without exposure to HO-4160 nitroxide spin-labeled […] (SLF), where the SLF-negative sample was treated with DMSO vehicle equal to the SLF-exposed sample. Following the labeling period with either SLF or the DMSO vehicle control, the brain slices were imbedded into agarose and imaged by MRI. Measurements were made in three separate experiments, using slices from unique AD and wild type (WT) mice in each experiment.
5xFAD brain slices treated with SLF decrease in intensity to a mean value of 1.6±0.1×10^5, compared to the T2-weighted images of the untreated samples, with a mean value of 2.6±0.1×10^5. Evaluation of the two sets by the unpaired t-test supports a significant difference among these groups (p<0.01). With respect to T2*, there also is a significant (p<0.02) intensity difference between the two groups of 5xFAD specimens, with a mean intensity of 1.4±0.2×10^5 for the SLF-treated samples, and a mean intensity of 2.3±0.1×10^5 for the untreated samples. In addition, T2 and T2*-weighted imaging of corresponding slices from WT mice show no difference between the SLF-treated and SLF-negative (not shown) specimens.
Both T2 and T2* signal suppression was calculated in each of the three experiments. The average suppression values were calculated according to the equation: SS %=[(SIref−SI)/SIref]*100 where SI is the average signal intensity of the 5xFAD SLF+ section and SIref is the average signal intensity of the 5xFAD SLF− or WT SLF+ section. Calculation results are plotted in FIG. 7, where both the gray and white bars represent the suppression of MRI intensity found in the 5xFAD specimen following SLF treatment. The gray bars show signal suppression relative to the untreated 5xFAD brain, while the white bars compare the suppression relative to the SLF-treated specimens from WT mice. Relative to both controls, SLF generates ˜40% signal suppression for samples carrying a high amyloid-beta load. In the absence of SLF, the average intensity of the 5xFAD brain sections have a slightly lower T2/T2* MRI intensity than specimens from WT mice. This can be attributed to iron bound to deposits of AB, which has been previously observed in the MRI analyses of AD model mice (Vanhoutte et al. (2005); Jack et al. (2007); and Wadghiri et al. (2012)). Thus, the relative suppression is slightly higher when comparing the +SLF AD sample to the +SLF WT sample.

The target of assay [2] is T2, amyloid (AB) in 5xFAD mouse brain tissue (Homo sapiens, UniProt P05067).
T2 construct: produces elevated amyloid beta levels in the brain; from tissue; host or cells: brain of 5xFAD transgenic mice (400 µm coronal slices)
T2 sequence (P05067 672-713 limits assumed): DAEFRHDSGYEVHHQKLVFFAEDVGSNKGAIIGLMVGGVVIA
The experiment in a line: EPR spectroscopy of brain slices labeled in vitro. The class given is binding. As to conditions: 5xFAD brain tissue treated in vitro. The source says:
Samples were loaded into a quartz cell and examined by electron paramagnetic resonance (EPR) spectroscopy. […] Thus, in agreement with results from the MRI measurements, the lack of EPR signal from the WT+SLF brain section excludes non-specific binding of SLF in these tissue samples. […] The broad EPR spectrum from the +SLF 5xFAD reflects a strongly immobilized spin probe, consistent with high affinity binding to a solidified matrix.

A further assay relates to MC65 neuroblastoma cell. In words: MC65 assay: protection against AB toxicity (MTT cell viability). The class given is cell-based, human. To be noted: MC65 cells, TC removal, 3 days. An excerpt: The ability of agents to protect against AB toxicity can be measured according to their effect on the survivability of MC65 neuroblastoma cell (Maezawa et al. (2008) J. Neurochem. 104:457). In the MC65 model system, expression of the C-terminal region (C99) of the amyloid precursor protein (APP) is turned on in the absence of the transgene suppressor, tetracycline (TC). Upon APP-C99 induction (TC-), AB is generated after proteolysis by cellular γ-secretase […]. In the absence of protection, death of MC65 neuroblastoma cells results due to the intracellular accumulation of oligomeric AB (ABO). […] In Table 2 below, we report the ability of the SL-LRL1, SL-LRL2, SL-Res1, SL-Res2, and SL-Res3 compounds to protect against AB toxicity in the MC65 assay.
The cell culture model used for these studies was the human neuroblastoma cell line (MC65) equipped with conditional expression of the carboxyl-terminal 99 residues of the amyloid-beta precursor protein (APP-C99). AB is generated from APP-C99 after proteolysis by cellular γ-secretase. To induce cellular AB production, the transgene suppressor, tetracycline (TC), was removed from the media, as described previously (Maezawa et al. (2008)). Intracellular ABO starts to accumulate as early as 4 hours after TC removal. The compounds were added immediately after TC removal, and the cells were maintained for 3 days without media change before measuring cell viability. The cytotoxicity was determined on day 3 using a colorimetric MTT [3-(4,5-dimethylthiazol-2yl)-2,5-diphenyltetrazolium bromide] cell viability assay.

T1 sequence (P05067 672-713 limits assumed): as above

Regarding `Cc1c(C(N)=O)c(=O)oc2cc3c(cc12)nc(NCCNC(=O)C1CC(C)(C)N([O])C1(C)C)n3Cc1cccc(I)c1` (centres unmarked) [SL-LRL1, 3-(3-iodobenzyl)-8-methyl-6-oxo-2-((2-(2,2,5,5-tetramethyl-1-oxylpyrrolidine-3-carboxamido)ethyl)amino)-3,6-dihydrochromeno[6,7-d]imidazole-7-carboxamide Radical], the “contrast in T2*-weighted imaging” value in assay [1] is “strong negative contrast”. For the same compound, in assay [2], the “EPR signal / binding to brain tissue” value is given as “confirming the binding”. Further, in the assay on MC65 neuroblastoma cell, the EC50 worked out at 4500 nM.

As to `Cc1c(C(N)=O)c(=O)oc2cc3c(cc12)nc(NCC1=CC(C)(C)N([O])C1(C)C)n3Cc1cccc(I)c1` [SL-LRL2, 3-(3-iodobenzyl)-8-methyl-6-oxo-2-(((2,2,5,5-tetramethyl-1-oxyl-2,5-dihydro-1H-pyrrol-3-yl)methyl)amino)-3,6-dihydrochromeno[6,7-d]imidazole-7-carboxamide Radical], in assay [1], the “contrast in T2*-weighted imaging” value is on record as “ability to generate negative contrast”. The compound further returned an EC50 in the assay on MC65 neuroblastoma cell of 3500 nM.

`CC1(C)C=C(COc2cc(O)cc(/C=C/c3ccc(O)cc3)c2)C(C)(C)N1[O]` [SL-Res1]: the “contrast in T2*-weighted imaging” value in assay [1] is listed as “ability to generate negative contrast”. Also, the EC50 in the assay with MC65 neuroblastoma cell turned out to be 450 nM.

Turning to `CC1(C)CC(NC(=O)COc2cc(O)cc(/C=C/c3ccc(O)cc3)c2)C(C)(C)N1[O]` (centres unmarked) [SL-Res2, (E)-2-(3-hydroxy-5-(4-hydroxystyryl)phenoxy)-N-(2,2,5,5-tetramethyl-1-oxylpyrrolidin-3-yl)acetamide Radical], in assay [1], the “contrast in T2*-weighted imaging” value is “ability to generate negative contrast”. Also, in the assay on MC65 neuroblastoma cell, the concentration for a half-maximal effect (EC50) stood at 680 nM.

As for `CC1(C)C=C(C(=O)Oc2ccc(/C=C/c3cc(O)cc(O)c3)cc2)C(C)(C)N1[O]` [SL-Res3, (E)-4-(3,5-dihydroxystyryl)phenyl 2,2,5,5-tetramethyl-1-oxyl-2,5-dihydro-1H-pyrrole-3-carboxylate Radical], in assay [1], the “contrast in T2*-weighted imaging” value is given as “ability to generate negative contrast”. In the assay with MC65 neuroblastoma cell, the EC50 was 410 nM.

Source of the values: patent US12064488B2, “Nitroxide containing amyloid binding agents for imaging and therapeutic uses” (The Regents of the University of California, priority 2015, dated 2024).
